Experimental findings from US8895549B2, “Aminoalcohol substituted 2,3-dihydroimidazo[1,2-c]quinazoline derivatives useful for treating hyper-proliferative disorders and diseases associated with angiogenesis” (Bayer Intellectual Property GmbH, priority 2010, dated 2014) are described below.

Counter-ions that a name gives are not always drawn.

The target of experiment [1] is PI3Kα (complex of human p110α and human p85α) (Homo sapiens (Human), UniProt P42336). In words: PI3Kα kinase assay (HTRF-based PI3K inhibition assay).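 For all read-outs here: PIP3 product detected by HTRF, reading resonance energy transfer from Europium-labeled anti-GST antibody to Streptavidin-APC, as displacement of biotinylated PIP3 tracer from the GST-PH domain complex.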 The format is biochemical. As to conditions: for inhibition at 0.93 µM: 0.93 μM compound, read-out: PI3K alpha average % Inhibition at 0.93 μM; for IC50: 10 μM ATP, 10 μM PIP2, 20 min at 22° C., read-out: average IC50 in the PI3K alpha biochemical assay. In general terms: In TR-FRET formats the signal depends on donor and acceptor labels being close together.
PI3Kα (complex of human p110α and human p85α), sequence (P42336 whole entry, the tested form may be a part): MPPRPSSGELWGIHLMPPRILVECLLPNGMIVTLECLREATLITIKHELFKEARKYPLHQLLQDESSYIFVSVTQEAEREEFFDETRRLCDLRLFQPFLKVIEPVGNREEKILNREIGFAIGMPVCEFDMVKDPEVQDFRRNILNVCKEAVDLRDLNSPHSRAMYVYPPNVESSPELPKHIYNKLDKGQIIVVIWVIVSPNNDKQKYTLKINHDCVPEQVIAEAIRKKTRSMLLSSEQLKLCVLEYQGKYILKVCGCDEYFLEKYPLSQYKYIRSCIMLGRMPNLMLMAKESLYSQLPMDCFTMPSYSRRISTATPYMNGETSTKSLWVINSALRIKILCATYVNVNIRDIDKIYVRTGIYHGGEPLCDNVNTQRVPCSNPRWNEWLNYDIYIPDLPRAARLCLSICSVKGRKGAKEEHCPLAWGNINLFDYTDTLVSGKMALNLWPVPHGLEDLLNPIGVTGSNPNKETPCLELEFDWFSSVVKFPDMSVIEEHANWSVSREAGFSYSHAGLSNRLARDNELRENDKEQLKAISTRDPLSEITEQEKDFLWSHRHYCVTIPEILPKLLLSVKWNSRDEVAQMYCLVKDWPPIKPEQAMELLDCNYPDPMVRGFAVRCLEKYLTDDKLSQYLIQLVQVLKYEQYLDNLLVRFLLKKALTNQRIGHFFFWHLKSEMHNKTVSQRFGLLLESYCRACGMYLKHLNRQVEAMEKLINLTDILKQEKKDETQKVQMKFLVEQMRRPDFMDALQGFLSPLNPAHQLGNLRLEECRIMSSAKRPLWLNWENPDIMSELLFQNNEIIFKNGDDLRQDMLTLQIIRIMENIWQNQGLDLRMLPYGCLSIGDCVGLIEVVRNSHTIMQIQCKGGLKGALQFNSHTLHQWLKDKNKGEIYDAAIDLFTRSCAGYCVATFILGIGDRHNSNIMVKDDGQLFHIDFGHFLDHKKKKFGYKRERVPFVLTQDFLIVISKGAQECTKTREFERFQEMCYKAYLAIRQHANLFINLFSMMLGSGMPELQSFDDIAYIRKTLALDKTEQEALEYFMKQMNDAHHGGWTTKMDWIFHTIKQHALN
PI3Kα (complex of human p110α and human p85α), sequence (P27986 whole entry partner, the tested form may be a part): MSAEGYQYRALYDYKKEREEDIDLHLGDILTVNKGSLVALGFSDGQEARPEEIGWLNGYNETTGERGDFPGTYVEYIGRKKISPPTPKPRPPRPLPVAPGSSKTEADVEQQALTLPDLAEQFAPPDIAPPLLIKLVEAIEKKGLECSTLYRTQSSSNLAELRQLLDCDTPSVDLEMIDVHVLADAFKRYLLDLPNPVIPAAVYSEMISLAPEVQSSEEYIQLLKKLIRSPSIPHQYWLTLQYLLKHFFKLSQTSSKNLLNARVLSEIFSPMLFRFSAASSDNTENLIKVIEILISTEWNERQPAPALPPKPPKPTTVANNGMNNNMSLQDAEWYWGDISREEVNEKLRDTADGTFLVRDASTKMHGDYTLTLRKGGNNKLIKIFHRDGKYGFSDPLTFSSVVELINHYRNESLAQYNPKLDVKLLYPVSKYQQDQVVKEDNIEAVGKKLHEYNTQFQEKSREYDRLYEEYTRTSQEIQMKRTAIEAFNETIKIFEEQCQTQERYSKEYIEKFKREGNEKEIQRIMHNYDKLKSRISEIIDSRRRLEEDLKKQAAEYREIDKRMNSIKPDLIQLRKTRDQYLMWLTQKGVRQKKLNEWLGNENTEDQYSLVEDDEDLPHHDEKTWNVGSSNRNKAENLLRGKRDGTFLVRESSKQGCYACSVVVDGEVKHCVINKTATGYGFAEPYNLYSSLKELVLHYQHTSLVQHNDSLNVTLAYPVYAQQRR
Description: (§1) Determination of % Inhibition and IC50 Values of Compounds in PI3Kα Kinase Assay
PI3Kα inhibitory activity of compounds of the present invention was quantified employing the HTRF-based PI3K inhibition assay as described below.
(§2) As reagents for the kinase reaction itself and the quantification of the reaction product, the PI3-Kinase HTRF Assay kit from Millipore (#33-017) was used. With this kit the phosphatidylinositol 3,4,5-trisphosphate (PIP3) generated in the kinase reaction is detected by displacement of a biotinylated ligand from an energy transfer complex consisting of a Europium-labeled anti-GST monoclonal antibody, a GST-tagged PH domain, biotinylated PIP3 and Streptavidin-Allophycocyanin (APC).
For the assay 50 nL of a 80-fold concentrated solution of the test compound in DMSO was pipetted into a black low volume 384-well microtiter plate (Greiner Bio-One, Frickenhausen, Germany), 3 μL of a solution of PI3Kα and phosphatidylinositol-4,5-bisphosphate (PIP2, 13.8 μM=> final conc. in 4 μl reaction volume=10 μM) in 1× reaction buffer (exact composition not disclosed by the vendor) were added and the mixture was incubated for 15 min at 22° C. to allow pre-binding of the test compounds to the enzyme before the start of the kinase reaction. The amount of PI3Kα was chosen to have the enzyme reaction in the linear range and depended on the activity of the individual lot, typical concentrations in assay were in the range of 90 ng/mL. Then the kinase reaction was started by the addition of 1 μL of a solution of adenosine triphosphate (ATP, 40 μM=> final conc. in the 4 μL assay volume is 10 μM) in reaction buffer and the resulting mixture was incubated for a reaction time of 20 min at 22° C.
The reaction was stopped by the addition of 1 μL of an stop solution (containing the biotinylated PIP3 used as a tracer), then 1 μL detection mix (containing a Europium-labeled anti-GST monoclonal antibody, a GST-tagged PH domain, and Streptavidin-Allophycocyanin) was added and resulting mixture was incubated 3 h at 22° C. to allow the formation of complexes between the detection reagents and either the PIP3 generated in the kinase reaction, or the biotinylated PIP3 added with the stop solution. Subsequently, the amount of energy transfer complex consisting of a Europium-labeled anti-GST monoclonal antibody, a GST-tagged PH domain, biotinylated PIP3 and Streptavidin-Allophycocyanin (APC) was evaluated by measurement of the resonance energy transfer from the Europium-labeled anti-GST monoclonal antibody to the Streptavidin-Allophycocyanin. Therefore, the fluorescence emissions at 620 nm and 665 nm after excitation at 350 nm were measured using a TR-FRET reader, e.g., a Pherastar (BMG Labtechnologies, Offenburg, Germany) or a Viewlux (Perkin-Elmer). The ratio of the emissions at 665 nm and at 622 nm was taken as the measure for the amount of biotinylated PIP3 bound to the GST-tagged PH domain, which is negatively correlated with the amount of PIP3 generated.

For experiment [2], the target named is PI3Kβ (complex of human p110β and human p85α) (Homo sapiens (Human), UniProt P42338). In words: PI3Kβ kinase assay (HTRF-based PI3K inhibition assay).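 For all read-outs here: Kinase-made PIP3 detected by HTRF, displacing biotinylated PIP3 tracer from a complex of Europium anti-GST antibody, GST-fused PH domain and Streptavidin-APC, read as Europium-to-APC energy transfer.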 The conditions noted are these: for inhibition at 0.93 µM: 0.93 μM compound, read-out: PI3K beta average % Inhibition at 0.93 μM; for IC50: 10 μM ATP, 10 μM PIP2, 20 min at 22° C., read-out: average IC50 in the PI3K beta biochemical assay; for PI3K beta average IC50/PI3K alpha average IC50: ratio of beta IC50 to alpha IC50. The experiment is classed as biochemical.
PI3Kβ (complex of human p110β and human p85α), sequence (P42338 whole entry, the tested form may be a part): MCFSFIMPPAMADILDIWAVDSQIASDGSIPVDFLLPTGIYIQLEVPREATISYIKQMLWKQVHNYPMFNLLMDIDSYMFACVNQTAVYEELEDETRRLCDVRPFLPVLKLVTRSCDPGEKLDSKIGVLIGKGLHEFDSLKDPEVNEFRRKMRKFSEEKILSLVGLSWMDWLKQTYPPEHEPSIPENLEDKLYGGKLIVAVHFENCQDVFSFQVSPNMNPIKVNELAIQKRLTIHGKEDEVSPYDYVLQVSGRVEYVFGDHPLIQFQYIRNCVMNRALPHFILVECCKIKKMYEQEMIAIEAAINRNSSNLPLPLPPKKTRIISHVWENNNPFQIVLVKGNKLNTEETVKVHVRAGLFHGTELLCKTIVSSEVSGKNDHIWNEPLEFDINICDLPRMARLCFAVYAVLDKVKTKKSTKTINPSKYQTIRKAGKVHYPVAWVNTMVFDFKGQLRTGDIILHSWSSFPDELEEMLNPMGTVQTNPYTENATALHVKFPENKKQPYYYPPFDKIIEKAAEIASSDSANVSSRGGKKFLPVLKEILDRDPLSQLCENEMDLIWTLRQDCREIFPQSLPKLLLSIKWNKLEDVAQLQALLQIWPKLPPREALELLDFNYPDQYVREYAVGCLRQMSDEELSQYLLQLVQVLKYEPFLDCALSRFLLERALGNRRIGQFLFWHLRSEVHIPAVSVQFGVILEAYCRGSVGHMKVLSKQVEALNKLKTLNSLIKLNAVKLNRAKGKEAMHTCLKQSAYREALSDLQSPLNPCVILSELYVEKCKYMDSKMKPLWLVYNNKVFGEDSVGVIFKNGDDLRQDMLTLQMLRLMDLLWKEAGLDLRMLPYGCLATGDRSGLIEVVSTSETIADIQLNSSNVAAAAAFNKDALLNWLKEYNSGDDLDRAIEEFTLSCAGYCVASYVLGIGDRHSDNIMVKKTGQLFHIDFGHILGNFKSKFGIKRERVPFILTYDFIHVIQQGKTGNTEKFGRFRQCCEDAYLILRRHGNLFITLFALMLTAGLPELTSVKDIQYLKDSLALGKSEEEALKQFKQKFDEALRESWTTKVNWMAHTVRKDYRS
PI3Kβ (complex of human p110β and human p85α), sequence (P27986 whole entry partner, the tested form may be a part): as the sequence (P27986 whole entry partner, the tested form may be a part) above
Description: as §1
PI3Kα inhibitory activity of compounds of the present invention was quantified employing the HTRF based PI3K inhibition assay as described below.
as §2
For the assay 50 nL of a 80-fold concentrated solution of the test compound in DMSO was pipetted into a black low volume 384-well microtiter plate (Greiner Bio-One, Frickenhausen, Germany), 3 μl of a solution of PI3Kβ and phosphatidylinositol-4,5-bisphosphate (PIP2, 13.8 μM=> final conc. in 4 μl reaction volume=10 μM) in 1× reaction buffer (exact composition not disclosed by the vendor) were added and the mixture was incubated for 15 min at 22° C. to allow pre-binding of the test compounds to the enzyme before the start of the kinase reaction. The amount of PI3Kβ was chosen to have the enzyme reaction in the linear range and depended on the activity of the individual lot, typical concentrations in assay were in the range of 120 ng/mL. Then the kinase reaction was started by the addition of 1 μL of a solution of adenosine triphosphate (ATP, 40 μM=> final conc. in the 4 μl assay volume is 10 μM) in reaction buffer and the resulting mixture was incubated for a reaction time of 20 min at 22° C.
The reaction was stopped by the addition of 1 μL of an stop solution (containing the biotinylated PIP3 used as a tracer). Then 1 μL detection mix (containing a Europium-labeled anti-GST monoclonal antibody, a GST-tagged PH domain, and Streptavidin-Allophycocyanin) was added and resulting mixture was incubated for 3 h at 22° C. to allow the formation of complexes between the detection reagents and either the PIP3 generated in the kinase reaction, or the biotinylated PIP3 added with the stop solution. Subsequently the amount of energy transfer complex consisting of a Europium-labeled anti-GST monoclonal antibody, a GST-tagged PH domain, biotinylated PIP3 and Streptavidin-Allophycocyanin (APC) was evaluated by measurement of the resonance energy transfer from the Europium-labeled anti-GST monoclonal antibody to the Streptavidin-Allophycocyanin. Therefore, the fluorescence emissions at 620 nm and 665 nm after excitation at 350 nm were measured using a TR-FRET reader, e.g., a Pherastar (BMG Labtechnologies, Offenburg, Germany) or a Viewlux (Perkin-Elmer). The ratio of the emissions at 665 nm and at 622 nm were taken as the measure for the amount of biotinylated PIP3 bound to the GST-tagged PH domain, which is negatively correlated with the amount of PIP3 generated.

By inhibition is commonly meant the drop in the measured response relative to a control, in per cent. In general, IC50 refers to the concentration at which inhibition is half-maximal. Regarding `COc1c(OCC(O)CN2CCOCC2)ccc2c1N=C(NC(=O)c1cnc(N)nc1)N1CCN=C21` (stereo not shown) [Example 25, 2-Amino-N-{8-[2-hydroxy-3-(morpholin-4-yl)propoxy]-7-methoxy-2,3-dihydroimidazo[1,2-c]quinazolin-5-yl}pyrimidine-5-carboxamide], in experiment [1], the inhibition at 0.93 µM was found to be 92.7% and the IC50 is less than 0.01 µM. In addition, in experiment [2], the inhibition at 0.93 µM came to 93.3%, the IC50 was less than 0.01 µM and the “PI3K beta average IC50/PI3K alpha average IC50” value is 8.30.
Take `COc1c(OC[C@H](O)CN2C[C@@H](C)O[C@@H](C)C2)ccc2c1N=C(NC(=O)c1cnc(N)nc1)N1CCN=C21` [Example 27, 2-amino-N-[8-({(2R)-3-[(2R,6S)-2,6-dimethylmorpholin-4-yl]-2-hydroxypropyl}oxy)-7-methoxy-2,3-dihydroimidazo[1,2-c]quinazolin-5-yl]pyrimidine-5-carboxamide]: in experiment [1], the inhibition at 0.93 µM was determined as 97.9% and the half-maximal inhibitory concentration (IC50) was less than 0.01 µM. Also, in experiment [2], the inhibition at 0.93 µM came out at 102%, the IC50 was 0.01 to 0.05 µM and the “PI3K beta average IC50/PI3K alpha average IC50” value came to 5.52.
Consider `COc1c(OC[C@H](O)CN2CC3CCC(C2)O3)ccc2c1N=C(NC(=O)c1cnc(N)nc1)N1CCN=C21` [Example 28, 2-Amino-N-(8-{[(2R)-2-hydroxy-3-(8-oxa-3-azabicyclo[3.2.1]oct-3-yl)propyl]oxy}-7-methoxy-2,3-dihydroimidazo[1,2-c]quinazolin-5-yl)pyrimidine-5-carboxamide dihydrochloride], for which the inhibition at 0.93 µM in experiment [1] and in experiment [2] was 102% in each case. Also, the half-inhibitory concentration (IC50) in experiment [1] and in experiment [2] was less than 0.01 µM each time.
Regarding `COc1c(OC[C@H](O)CN(C)C)ccc2c1N=C(NC(=O)c1cnc(N)nc1)N1CCN=C21` [Example 29, 2-Amino-N-(8-{[(2R)-3-(dimethylamino)-2-hydroxypropyl]oxy}-7-methoxy-2,3-dihydroimidazo[1,2-c]quinazolin-5-yl)pyrimidine-5-carboxamide], in experiment [1], the inhibition at 0.93 µM amounted to 102% and the IC50 was less than 0.01 µM. Besides, in experiment [2], the inhibition at 0.93 µM was found to be 106%, the IC50 was less than 0.01 µM and the “PI3K beta average IC50/PI3K alpha average IC50” value is 6.75.
Consider `COc1c(OC[C@H](O)CN2CCOCC2)ccc2c1N=C(NC(=O)c1cnc3[nH]cnc3c1)N1CCN=C21` [Example 30, N-(8-{[(2R)-2-Hydroxy-3-(morpholin-4-yl)propyl]oxy}-7-methoxy-2,3-dihydroimidazo[1,2-c]quinazolin-5-yl)-3H-imidazo[4,5-b]pyridine-6-carboxamide], for which, in experiment [1], the inhibition at 0.93 µM was 110% and the IC50 was less than 0.01 µM. Further, in experiment [2], the inhibition at 0.93 µM was found to be 108%, the half-inhibitory concentration (IC50) was 0.01 to 0.05 µM and the “PI3K beta average IC50/PI3K alpha average IC50” value is 8.83.
On to `COc1c(OC[C@H](O)CN2CCOCC2)ccc2c1N=C(NC(=O)c1cncs1)N1CCN=C21` [Example 32, N-(8-{[(2R)-2-Hydroxy-3-(morpholin-4-yl)propyl]oxy}-7-methoxy-2,3-dihydroimidazo[1,2-c]quinazolin-5-yl)-1,3-thiazole-5-carboxamide], for which, in experiment [1], the inhibition at 0.93 µM is 96.1% and the concentration for half-maximal inhibition (IC50) is less than 0.01 µM. Further, in experiment [2], the inhibition at 0.93 µM was found to be 95.5%, the IC50 is 0.01 to 0.05 µM and the “PI3K beta average IC50/PI3K alpha average IC50” value was determined as 5.91.
For `COc1c(OC[C@H](O)CN2C[C@@H](C)O[C@@H](C)C2)ccc2c1N=C(NC(=O)c1cncs1)N1CCN=C21` [Example 34, N-[8-({(2R)-3-[(2R,6S)-2,6-dimethylmorpholin-4-yl]-2-hydroxypropyl}oxy)-7-methoxy-2,3-dihydroimidazo[1,2-c]quinazolin-5-yl]-1,3-thiazole-5-carboxamide], in experiment [1], the inhibition at 0.93 µM was determined as 94.2% and the IC50 was less than 0.01 µM. In experiment [2], the inhibition at 0.93 µM was 97.1%, the IC50 was in the range of 0.01 to 0.05 µM and the “PI3K beta average IC50/PI3K alpha average IC50” value was 7.21.
